Test results as given in patent publication US20200038413A1, “METHODS OF TREATING PARKINSON'S DISEASE USING AMINOSTEROL COMPOSITIONS” (Enterin, Inc., priority 2018, published 2020).
Values joined by “and” are separate entries in the source; they are usually repeats but may differ in a detail not shown here. Equal entries are not always repeated.

Assays:
[1] = tested on: patients with PD and constipation; experiment: Phase 2 trial Stage 2: daily oral dosing, bowel function / stool related indices; assay type: in vivo, human
Method: Following successful screening, all subjects underwent a 14-day run-in period where the degree of constipation was assessed through a validated daily log (Zinsmeister et al. 2013) establishing baseline CSBMs/week. Subjects with an average of <3 CSBMs/week proceeded to dosing.
In Stage 2, 34 patients were evaluated.
The primary efficacy outcome variable was whether or not a subject was a “success” or “failure”. This is an endpoint based on subject diary entries for the “fixed dose” period prior to the endpoint assessment defined as average complete stool frequency increase by 1 or more over baseline, or 3 or more complete spontaneous stools/week. The subject was deemed a “success” if s/he met one or more of the criteria listed above, otherwise the subject was deemed a “failure”. The primary analysis was based on all subjects with a baseline assessment and an assessment at the end of the “fixed-dose” period and was a comparison of the proportion of successes with 0.10 (the null hypothesis corresponding to no treatment effect).

[2] = Phase 2 trial: pharmacokinetics of orally administered squalamine (ENT-01); assay type: in vivo; settings: human, based on PK of intravenously administered squalamine in prior clinical studies
Method: Pharmakokinetics: PK data were collected on the 10 patients enrolled in Stage 1 and 10 patients enrolled in Stage 2 to determine the extent of systemic absorption. In Stage 1, PK data were obtained at each visit, pre-medication, at 1, 2, 4, 8 and 24 hours (Table 10). In Stage 2, PK was measured on days 1 and 6 of the randomization period pre-medication, at 1, 2, 4 and 8 hours (Table 11).
The mean Cmax, Tmax and T1/2 and AUC of the squalamine ion following squalamine (ENT-01) oral dosing for Stage 1 patients. The PK analyses are only approximate, as the lower limit of the validated concentration range was 10 ng/ml; most of the measured concentrations fell below that value. The mean Cmax, Tmax and T1/2 and AUC of the squalamine ion following squalamine (ENT-01) oral dosing for Stage 2 patients. The PK analyses are only approximate, as the lower limit of the validated concentration range was 0.5 ng/ml.

[3] = tested on: patients with PD and constipation; experiment: Phase 2 trial Stage 2: CNS symptoms (UPDRS, MMSE, PDHQ, BDI-II, sleep diary); assay type: in vivo, human
Source text: Exploratory end-points, in addition to constipation, included for example, (i) depression assessed using the Beck Depression Inventory (BDI-II) (Steer et al. 2000) and Unified Parkinson's Disease Rating Scale (UPDRS); (ii) cognition assessed using the Mini Mental State Examination (MMSE) (Palsteia et al. 2018), Unified Parkinson's Disease Rating Scale (UPDRS), and Trail Making Test (TMT); (iii) sleep and REM-behavior disorder (RBD) using a daily sleep diary, I-Button Temperature Assessment, a REM sleep behavior disorder (RBD) questionnaire (RBDQ) (Stiasny-Kolster et al. 2007), and the UPDRS; (iv) hallucinations assessed using the PD hallucinations questionnaire (PDHQ) (Papapetropoulos et al. 2008), the UPDRS, and direct questioning; (v) fatigue using the Parkinson's Disease Fatigue Scale (PFS-16) and the UPDRS; (vi) motor functions using the UPDRS; and (vii) non-motor functions using the UPDRS.
Assessments were made at baseline and at the end of the fixed dose and washout periods. Circadian system status was evaluated by continuously monitoring wrist skin temperature (Thermochron iButton DS1921H; Maxim, Dallas) following published procedures (Sarabia et al. 2008).
CNS Symptoms in Stage 2: An exploratory analysis was done with respect to the sleep data, the body temperature data, mood, fatigue, hallucinations, cognition and other motor and non-motor symptoms of PD. Continuous measurements within a subject were compared with a paired t-test and continuous measurements between subject groups were compared with a two-group t-test. Categorical data were compared with a chi-squared test or a Fisher's exact test if the expected cell counts are too small for a chi-squared test.

[4] = tested on: colon segments (propagating contractile clusters); experiment: Ex vivo colon motility, A53T human α-synuclein overexpressing mice and WT littermates; design: species or system mouse
[5] = Preclinical oral studies in rats; assay type: in vivo
[6] = Preclinical oral studies in dogs; assay type: in vivo
Solubility in water = assay type: physicochemical; settings: pH<3.5 (the pH of gastric fluid)
C. elegans model of PD = settings: cited from earlier work

## CC(C)[C@@H](CC[C@@H](C)[C@H]1CC[C@H]2[C@@H]3[C@H](O)C[C@H]4C[C@@H](NCCCNCCCCN)CC[C@]4(C)[C@H]3CC[C@]12C)OS(=O)(=O)O (single isomer, unassigned) [squalamine (ENT-01), squalamine]
[1]; Stage 2, wash-out, mean (SD), baseline 1.2 (0.90)
  CSBM: 1.8 (1.19)
[1]; Stage 2, wash-out, mean (SD), baseline 2.6 (1.45)
  SBM: 3.2 (1.80)
[1]; Stage 2 daily dosing, 75 mg
  response rate (CSBM within 24 hours on at least 2 of 3 days): 26%
[1]; fixed dose vs baseline
  decrease in use of rescue medication: 83%
  improvement in SBM: 73%
  improvement in consistency (Bristol stool scale): 52%
  improvement in ease of passage: 16%
[2]
  oral bio-availability (estimated): less than 0.3%
[3]; 250 mg vs baseline
  increase in total sleep time: 18%
[3]; during treatment, patients with hallucinations (5) or delusions (1) at baseline
  hallucinations and delusions improved or disappeared: 5 of 6
[3]; maximal dose vs baseline
  improvement in frequency of arm or leg thrashing: 100%
[3]; wash-out vs baseline
  improvement in UPDRS Part 1: ~20% and 18%
[4]; A53T mice, baseline state, intraluminal 30 μM, without drug 1.2±0.2
  PCC velocity: 2.3±0.4 mm/s
[4]; A53T mice, colonic expansion (mechanical threshold), 30 μM, without drug 1.6±0.3
  PCC velocity: 2.1±0.3 mm/s
[4]; WT mice, baseline state, intraluminal 30 μM, without drug 1.7±0.3
  PCC velocity: 2.8±0.4 mm/s
[4]; WT mice, colonic expansion (mechanical threshold), 30 μM, without drug 3.0±0.7
  PCC velocity: 2.4±0.3 mm/s
[5]; oral
  tolerability: well tolerated
[5]; preclinical studies
  oral bioavailability: about 0.1%
[6]
  tolerability: well tolerated
Solubility in water
  solubility in water: readily dissolves
C. elegans model of PD; C. elegans model of PD (Perni et al. 2017)
  muscle paralysis: complete reversal of muscle paralysis
C. elegans model of PD; C. elegans model of PD in vivo (Perni et al. 2017)
  formation of aggregates of αS: inhibit the formation of aggregates of αS
